Patent US20170128557A1, “Dendritic Cell Therapeutic Agent and Immunotherapeutic Agent Comprising Peptide Derived from Telomerase, and Therapeutic Methods Using the Same” (GemVax & KAEL Co., Ltd., priority 2015, published 2017)

Test system: T cells in the peripheral blood
Experiment: ELISPOT assay (IFN-γ / IL-4) on patients' peripheral blood T cells before/after dendritic cell immunotherapy
Format: cell-based, human
Protocol: As described above, dendritic cells activate CTL to attack target cells to treat a disease. Accordingly, dendritic cells activated by peptides including PEP1 were prepared, administered to each individual, and subjected to an ELISPOT assay to observe an increase in T cell responses to each peptide in each individual.
The experiments were performed on four patients with different diseases (cancers), and a dendritic cell immunotherapy method is as follows. Mononuclear cells were collected from peripheral blood extracted from each patient and cultured. Immature dendritic cells differentiated in the mononuclear cell culture were subjected to antigen activation with tumor-associated antigen peptides including PEP1. When the dendritic cells became mature, antigen activation was carried out once more with the same peptides. The activated mature dendritic cells were separated and then administered to each patient.
More specifically, dendritic cells and NK cells used in treatment were prepared by proliferating mononuclear cells obtained from 25 ml of whole blood taken from a patient every two weeks, and differentiating the proliferated mononuclear cells into dendritic cells. That is, in this example, CD14+ mononuclear cells obtained from a peripheral blood vessel of the patient were cultured with IL-4 and GM-CFS for 6 days and proliferated, and then treated with a Streptococcus agent OK-432 for maturation. In addition, in the preparation of the dendritic cells, the dendritic cells were activated by WT1, MUC1 and other antigens.
According to cancer characteristics of a patient undergoing a gene test, an antigen test and a tumor marker test, a substance having a similar function to a tumor-associated antigen (a cancer cell lysate, tumor-specific protein, or tumor-associated peptide) was added to the dendritic cells to enhance a cancer-recognizing ability of the dendritic cells, which is an activation process. For dendritic cell activation, as tumor-associated antigens that can be used in the present invention but not limited thereto, WT1, MUC-1, CA125, MAGE-A3, CEA, NY-ESO1, survinin, Her2, and the telomerase-derived peptide PEP1 were used. As an activation method but not limited to a specific example, the dendritic cells may be cultured with such a tumor-associated antigen. The activation may be performed on immature dendritic cells or mature dendritic cells. In one specific example of the present invention, mononuclear cells were collected from a patient's peripheral blood and cultured, immature dendritic cells differentiated from the mononuclear cells were treated with a peptide to activate and thus differentiated into mature dendritic cells, and then the mature dendritic cells were treated with the same peptide for activation. An amount of the antigen used in the activation may be the same as generally used in the art as follows but is not limited thereto. For example, PEP1 may be used in an amount of 1 to 1000 μg/ml along with the antigens, and 20 μg/ml of WT1, 20 μg/ml of MUC1, 20 μg/ml of CEA, 500 μg/ml of CA125, and 20 μg/ml of HER2 may be used. The dendritic cells (1×10^7) prepared as described above were intradermally injected six times every 14 days.
The following experiment was performed to examine whether dendritic cell immunotherapy leads to an increase in T cell responses to peptides activated by an antigen. A buffy coat layer was separated from the peripheral blood of a patient subjected to the dendritic cell immunotherapy using a ficoll method (centrifugation using a ficoll), and mononuclear cells were obtained therefrom. Following 3 to 4-day culture, an ELISPOT assay was carried out. The ELISPOT assay was performed according to a protocol of an ImmunoSpot kit (Celluluar Technology Limited, USA). […] As peptide stimulants (antigen peptides), Peptivator WT1, Peptivator NY-ESO1 (Miltenyi Biotec., Germany), MUC-1, MAGE-A3, Survivin and PEP1 were added to each well at an optimum concentration and cultured for 48 hours. […]

Sequence: EARPALLTSRLRFIPK (homo sapiens) [PEP1, telomerase-derived peptide composed of 16 amino acids, position [611-626] on telomerase]
- Number of spots, IL-4 (Patient 1 (stomach cancer), 7 days after six times of dendritic cell vaccine administration, negative control 17): 335
- Number of spots, IFN-γ (Patient 1 (stomach cancer), 7 days after six times of dendritic cell vaccine administration, negative control 27): 567
- Number of spots, IL-4 (Patient 1 (stomach cancer), before dendritic cell vaccine administration, negative control 1): 2
- Number of spots, IFN-γ (Patient 1 (stomach cancer), before dendritic cell vaccine administration, negative control 5): 3
- ELISPOT spots compared with the negative control (Patient 1, after the treatment (dendritic cell vaccine six times)): increased
- Number of spots, IL-4 (Patient 2 (lung cancer), 44 days after six times of dendritic cell vaccine administration, negative control 2): 410
- Number of spots, IFN-γ (Patient 2 (lung cancer), 44 days after six times of dendritic cell vaccine administration, negative control 153, *exact number was not obtained): ~332.5*
- Number of spots, IL-4 (Patient 2 (lung cancer), before dendritic cell vaccine administration, negative control 0): 9
- Number of spots, IFN-γ (Patient 2 (lung cancer), before dendritic cell vaccine administration, negative control 1): 0
- ELISPOT spots compared with the negative control (Patient 2, after the treatment (dendritic cell vaccine 6 times)): increased
- Number of spots, IL-4 (Patient 3 (pancreatic cancer), 11 days after six times of dendritic cell vaccine administration, negative control 2): 434
- Number of spots, IFN-γ (Patient 3 (pancreatic cancer), 11 days after six times of dendritic cell vaccine administration, negative control 14): 632
- Number of spots, IFN-γ (Patient 3 (pancreatic cancer), before dendritic cell vaccine administration, negative control 3): 1
- Number of spots, IL-4 (Patient 3 (pancreatic cancer), before dendritic cell vaccine administration, negative control 8): 4
- ELISPOT spots compared with the negative control (Patient 3, after the treatment (dendritic cell vaccine 6 times)): increased
- Number of spots, IFN-γ (Patient 4 (breast cancer), 35 days after six times of dendritic cell vaccine administration, 2×10^5 cells/well, negative control 12): 258
- Number of spots, IL-4 (Patient 4 (breast cancer), 35 days after six times of dendritic cell vaccine administration, 2×10^5 cells/well, negative control 20): 353
- Number of spots, IFN-γ (Patient 4 (breast cancer), before dendritic cell vaccine administration, 2×10^5 cells/well, negative control 13): 22
- Number of spots, IL-4 (Patient 4 (breast cancer), before dendritic cell vaccine administration, 2×10^5 cells/well, negative control 17): 3
- ELISPOT spots compared with the negative control (Patient 4, after the treatment (dendritic cell vaccine 6 times)): increased
